According to BindingDB's records for doi:10.1073/pnas.86.24.9762 (Oregon Health Sciences University, 1989):

Target: D(2) dopamine receptor (Homo sapiens, UniProt P14416)
Sequence (P14416 whole entry): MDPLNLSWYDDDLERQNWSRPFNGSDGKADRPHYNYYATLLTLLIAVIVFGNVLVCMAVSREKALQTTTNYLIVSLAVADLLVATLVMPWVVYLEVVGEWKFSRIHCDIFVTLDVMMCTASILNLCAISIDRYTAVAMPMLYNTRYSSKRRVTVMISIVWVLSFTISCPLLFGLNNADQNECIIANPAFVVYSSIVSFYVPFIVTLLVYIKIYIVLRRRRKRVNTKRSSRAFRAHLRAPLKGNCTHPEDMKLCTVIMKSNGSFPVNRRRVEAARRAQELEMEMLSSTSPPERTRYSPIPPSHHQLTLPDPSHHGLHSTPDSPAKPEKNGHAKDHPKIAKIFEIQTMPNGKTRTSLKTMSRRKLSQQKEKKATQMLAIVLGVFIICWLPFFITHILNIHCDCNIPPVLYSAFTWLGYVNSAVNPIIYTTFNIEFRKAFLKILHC

Ki: 2680 nM
Compound: CN1CCN2c3ccccc3Cc3ccccc3[C@H]2C1 [MIANSERIN (+)]
